The values that follow are results of earlier work, collected in patent US20080095838A1, “Solid pharmaceutical composition containing a lipophilic active principle and preparation method thereof” (CLL Pharma, priority 2002, published 2008).

Counter-ions that a name gives are not always drawn.

For data set [1] the following is noted: in water.
The conditions of data set [2]: in vivo.

Regarding `CC(C)(C)NC(=O)[C@@H]1C[C@@H]2CCCC[C@@H]2CN1C[C@@H](O)[C@H](Cc1ccccc1)NC(=O)[C@H](CC(N)=O)NC(=O)c1ccc2ccccc2n1` [saquinavir mesylate], the solubility in data set [1] is 2220 µg/mL.

`CC(C)OC(=O)C(C)(C)Oc1ccc(C(=O)c2ccc(Cl)cc2)cc1` [fenofibrate, 2-(4-(4-chlorobenzoyl)phenoxy)-2-methylpropanoic acid 1-methylethyl ester]: the elimination half-life entry in data set [2] is given as “approximately 20 hours”.
